The subject of one data set is bovine serum albumin. The experiment in a line: Anti-glycation effect: inhibition of glycation of bovine serum albumin by D-ribose, measured by fluorescence. The note with it: for IC50: BSA + D-ribose 100 mM, 37° C., four weeks; for anti-glycation activity: compared with aminoguanidine. The class given is biochemical. How it is done: A solution of bovine serum albumin at 5 or 10 mg/ml dissolved in phosphate-buffered saline is incubated at 37° C. for four weeks in the presence or absence of the test compounds at a concentration of between 20 and 160 μg/ml, and in the presence or absence of D-ribose at 100 mM.
After this incubation, dialysis of each sample is performed for 24 hours against MilliQ water.
The glycation of the BSA is evaluated by measuring the fluorescence of each sample at λex 320/λex 380 nm (which corresponds to the formation of the pentosidine glycation product) and at λex 370/λex 440 nm (which corresponds to AGEs).
The inhibition of glycation corresponds to a decrease in fluorescence compared with the glycated control (treated with sugar). The concentration of compound leading to a 50% inhibition of glycation, or IC50, is determined.
Aminoguanidine is used as positive control and tested at various concentrations of between 20 and 160 μg/ml.

A short description of data set [1]: Release of ammonia on heating. Format: physicochemical. The note with it: in contrast with aminoguanidine.
The test system of data set [2] is supercoiled circular DNA (plasmid pBR322). Kind of data set: Antioxidant effect: DNA-protecting effect under simulated daily UV with ferric ions and riboflavin. The class given is biochemical. Conditions: 30 minutes simulated daily UV. How it is done:
The DNA-protecting effect of the compounds according to the invention was evaluated by comparison with vitamin C and N-acetylcysteine, which are two well-known antioxidants.
In this test, supercoiled circular DNA (plasmid pBR322, Roche) is placed in solution in the presence of 10 mM phosphate buffer (pH=7) and ferric ions (FeCl3, Sigma) at a concentration of 1 μM and in the presence of riboflavin (Sigma) at a concentration of 0.5 μM. The iron amplifies, via the Fenton reaction, the photo-oxidative impact on the DNA. Its presence also makes it possible to evaluate the potential chelating effect of the N-hydroxy imides according to the invention.
The samples are exposed for 30 minutes to simulated daily UV (attenuated UVB+total UVA) obtained using the Oriel solar simulator equipped with a suitable optical filter and a dichroic mirror. The corresponding spectrum is illustrated in FIG. 3.
The DNA is then subjected to electrophoresis on 1% agarose gel to separate the supercoiled forms, relaxed due to induction of breaks and linearized. After treatment in a gel with the fluorescent intercalating agent ethidium bromide, these three forms may be quantified by densitometry of the agarose gel under UV.

Setting [3] is: fluorescence corresponding to AGEs, read-out: λex 370/λex 440 nm IC50.
[4] abbreviates: fluorescence corresponding to formation of the pentosidine glycation product, read-out: λex 320/λex 380 nm IC50.

Structures are written as SMILES. Read-outs that look alike come from different tables or passages of the source.

Take `N=C(N)NN` [Aminoguanidine, reference compound]: the IC50 came out at 700 µM in the data set on bovine serum albumin (setting [3]) and 200 µM in the data set on bovine serum albumin (setting [4]).

`O=C1CCC(=O)N1O` [Compound 1, N-hydroxysuccinimide]: the anti-glycation activity result in the data set with bovine serum albumin is reported as “more moderate than aminoguanidine”. Also, in data set [1], the “releasing ammonia on heating” value was “not releasing ammonia on heating”.

For the compound `O=C1C=CC(=O)N1O` [Compound 2, N-hydroxymaleimide], the IC50 came to 600 µM with bovine serum albumin (setting [3]) and 800 µM in the data set with bovine serum albumin (setting [4]).

Take `O=C1C=C(c2ccccc2)C(=O)N1O` [Compound 3, N-hydroxy-2-phenylmaleimide]: the IC50 in the data set on bovine serum albumin (setting [3]) amounted to 40 µM; in the data set on bovine serum albumin (setting [4]) it was 30 µM. The “Score (level of DNA protection)” value in data set [2] (Concentration 0.1 mM) was “++ (The score (++) means that the active agent reduces the photodegradation of the DNA by at least 50%)”.

For the compound `O=C1c2ccccc2C(=O)N1O` [Compound 4, N-hydroxyphthalimide], the IC50 in the data set with bovine serum albumin (setting [3]) came out at 250 µM; in the data set with bovine serum albumin (setting [4]) it was 200 µM.

Consider `O=C1c2cccc3cccc(c23)C(=O)N1O` [Compound 5, N,N-(1,8-naphthaloyl)hydroxylamine], for which the IC50 stood at 45 µM in the data set with bovine serum albumin (setting [3]) and 0.8 µM with bovine serum albumin (setting [4]). Also, in data set [2] (Concentration 0.01 mM), the “Score (level of DNA protection)” value was “+ (The score (+) means that the active agent reduces the photodegradation of the DNA by at least 20%)”.

As to `O=C1CCCC(=O)N1O` [Compound 6, N-hydroxy-piperidine-2,6-dione], the anti-glycation activity entry in the data set on bovine serum albumin is recorded as “more moderate than aminoguanidine”.

For `CC(=O)N[C@@H](CS)C(=O)O` [N-Acetylcysteine, reference compound], the “Score (level of DNA protection)” value in data set [2] (Concentration 1 mM) is reported as “++ (The score (++) means that the active agent reduces the photodegradation of the DNA by at least 50%)”.

As to `O=C1O[C@H]([C@@H](O)CO)C(O)=C1O` [Vitamin C, reference compound], the “Score (level of DNA protection)” value in data set [2] (Concentration 1 mM) is “+ (The score (+) means that the active agent reduces the photodegradation of the DNA by at least 20%)”.

The values above are taken from patent US20090047224A1, “Cosmetic Process for Preventing or Treating the Signs of Skin Ageing or the Orange-Peel Appearance” (L'OREAL, priority 2003, published 2009).
